What was measured:
[1] = Amount of salicylic acid in rat brain tissue (blood-brain barrier), 0.5 mmol/kg; type: in vivo, rats
Description: 30, 60, 120, 240, 480 minutes after the test compound was administrated, rats were decapitated and were perfused with normal Krebs-Henseleit buffer (with Heparin Sodium, pH7.4) (10 mL/min) to remove blood. […] The mixture was centrifuged for 5 minutes at 16,000 rpm. The supernatant (2 ml) was collected and evaporated to dryness.

[2] = tested on: rats given sterilized E. coli suspension as a pyrogen; assay: Antipyretic activity of aspirin and its HPC (Study B); type: in vivo; conditions: for body temperature: in °C (unit assumed)
Description: […] Group A was the control group. The body temperature of rats was taken at 90 min. intervals before and after the administration of the test compounds.

SLAC/DB/DB obese mice = assay: Blood glucose and blood lipid levels in DB/DB mice; type: in vivo; conditions: 30 mg/kg transdermally once per day
Method in brief: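 SLAC/DB/DB mice aged 10-12 weeks, n=7, dosed transdermally at 30 mg/kg in 25% ethanol onto a shaved 4 cm^2 back area once daily at 8 am for 5 weeks. Blood glucose measured weekly; blood lipids every other week.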

[3] = tested on: SLAC:NOD-IDDM, type 1 diabetes; assay: Anti-diabetes (type I) activity of HPCs of NSAIAs; type: in vivo, mice
Method in brief: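 Prodrugs given transdermally to the shaved back (about 1.5 cm^2) twice daily at 8 am and 5 pm for 7 weeks, dosed as equal to 20 mg/kg of NSAIA. Non-fasting blood glucose was measured every 3 days at 4:30 pm from week 4 to week 7.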

[4] = tested on: diseases and insects of rice; assay: Antiviral, anti-fungus, anti-insect activity in rice; type: in vivo
[5] = tested on: MPTP-induced Parkinson's disease mice; assay: Anti-Parkinson's disease activity in MPTP-induced mice; conditions: MPTP mice, 30 mg/kg, n = 10
Description: Group A mice were ip injected 0.4% sodium carboxymethylcellulos (15 ml/kg per day) for 7 days. Group B and C mice were ip injected N-methyl-4-phenyl-1,2,3,6-tetrahydropyridine (MPTP, 30 mg/kg per day) for 7 days. The mice were divided into 2 groups. […] All mice were killed after the last treatment and the brain tissues were quickly freezed at −80° C. […] The contents of malondialdehyde (MDA) in the SN were measured with the thiobarbituric acid-reaction to indicate the LPO, and contents of glutathione (GSH) in the substantia nigra (SN) were based on the dithionitrobenzonic acid (DTNB) determination. The contents of GABA and Glu in the striatum and SN were shown by high performance amino acid auto-analyser.

## CCN(CC)CCOC(=O)c1ccccc1OC(C)=O.Cl [P-1, diethylaminoethyl acetylsalicylate.HCl salt]
[1]; intramuscularly, 30 min
  salicylic acid in brain tissue: 6.5 ± 2.2 nmol/g
[1]; intramuscularly, 60 min
  salicylic acid in brain tissue: 8.2 ± 2.3 nmol/g
[1]; intramuscularly, 120 min
  salicylic acid in brain tissue: 9.4 ± 3.1 nmol/g
[1]; intramuscularly, 240 min
  salicylic acid in brain tissue: 8.5 ± 2.5 nmol/g
[1]; intramuscularly, 480 min
  salicylic acid in brain tissue: 8.2 ± 2.3 nmol/g
[1]; transdermally, 30 min
  salicylic acid in brain tissue: 3.1 ± 1.1 nmol/g
[1]; transdermally, 60 min
  salicylic acid in brain tissue: 6.3 ± 2.3 nmol/g
[1]; transdermally, 120 min
  salicylic acid in brain tissue: 8.2 ± 3.5 nmol/g
[1]; transdermally, 240 min
  salicylic acid in brain tissue: 9.3 ± 3.3 nmol/g
[1]; transdermally, 480 min
  salicylic acid in brain tissue: 9.5 ± 4.2 nmol/g
[2]; 20 mg/kg, oral administration
  antipyretic activity: almost the same antipyretic activity as 100 mg/kg of aspirin
[2]; 20 mg/kg, orally, t = 0 min.
  body temperature: 37.6 ± 0.3
[2]; 20 mg/kg, orally, t = 90 min.
  body temperature: 37.1 ± 0.4
[2]; 20 mg/kg, orally, t = 180 min.
  body temperature: 36.8 ± 0.2
[2]; 20 mg/kg, orally, t = 270 min.
  body temperature: 36.5 ± 0.3
[2]; 50 mg/kg, orally, t = 0 min.
  body temperature: 37.6 ± 0.3
[2]; 50 mg/kg, orally, t = 90 min.
  body temperature: 36.7 ± 0.3
[2]; 50 mg/kg, orally, t = 180 min.
  body temperature: 36.5 ± 0.2
[2]; 50 mg/kg, orally, t = 270 min.
  body temperature: 36.4 ± 0.3
[2]; 100 mg/kg, orally, t = 0 min.
  body temperature: 37.6 ± 0.4
[2]; 100 mg/kg, orally, t = 90 min.
  body temperature: 36.6 ± 0.4
[2]; 100 mg/kg, orally, t = 180 min.
  body temperature: 36.5 ± 0.3
[2]; 100 mg/kg, orally, t = 270 min.
  body temperature: 36.4 ± 0.3
[2]; groups H/I, 50 mg/kg, transdermally, t = 0 min.
  body temperature: 37.5 ± 0.3
[2]; groups H/I, 50 mg/kg, transdermally, t = 90 min.
  body temperature: 36.5 ± 0.2
[2]; groups H/I, 50 mg/kg, transdermally, t = 180 min.
  body temperature: 36.3 ± 0.3
[2]; groups H/I, 50 mg/kg, transdermally, t = 270 min.
  body temperature: 36.4 ± 0.2
[2]; groups J/K, 20 mg/kg, transdermally, t = 0 min.
  body temperature: 37.5 ± 0.4
[2]; groups J/K, 20 mg/kg, transdermally, t = 90 min.
  body temperature: 36.7 ± 0.2
[2]; groups J/K, 20 mg/kg, transdermally, t = 180 min.
  body temperature: 36.4 ± 0.2
[2]; groups J/K, 20 mg/kg, transdermally, t = 270 min.
  body temperature: 36.4 ± 0.2
[2]; groups L/M, 20 mg/kg, transdermally, t = 0 min.
  body temperature: 37.6 ± 0.2
[2]; groups L/M, 20 mg/kg, transdermally, t = 90 min.
  body temperature: 36.5 ± 0.4
[2]; groups L/M, 20 mg/kg, transdermally, t = 180 min.
  body temperature: 36.4 ± 0.3
[2]; groups L/M, 20 mg/kg, transdermally, t = 270 min.
  body temperature: 36.5 ± 0.2
SLAC/DB/DB obese mice
  Cholesterol (total), Day 1: 7.1 ± 0.4 mmol/L
  Cholesterol (total), Week 5: 4.1 ± 0.4 mmol/L
  Triglycerides, Day 1: 4.1 ± 0.5 mmol/L
  Triglycerides, Week 5: 1.5 ± 0.3 mmol/L
  blood glucose, Day 1: 14.1 ± 2.6 mmol/L
  blood glucose, Week 5: 6.8 ± 2.8 mmol/L
[3]; equal to 20 mg/kg of NSAIAs transdermally twice per day for 7 weeks
  blood glucose, Baseline: 18.1 ± 4.5 mmol/L
[3]; fourth week to seventh week, no fasting, equal to 20 mg/kg of NSAIAs transdermally twice per day
  blood glucose, Average: 7.5 ± 1.8 mmol/L
[4]; 1/2 acre per group, imidacloprid co-applied in group C
  Yield of good rice: 1800 kg
[4]; group C and D
  harvest dates earlier: 5 days
[5]
  GABA in Striatum: 4.9 ± 1.6 μmol/g wet tissue
  GABA in Substantia nigra: 4.7 ± 0.5 μmol/g wet tissue
  GSH in the substantia nigra: 143 ± 13 μg/g protein
  Glu in Striatum: 26.5 ± 2.7
  Glu in Substantia nigra: 29.5 ± 2.4
  MDA in the substantia nigra: 14 ± 4 μmol/g protein

Source: patent publication US11541029B2, “High penetration compositions and their applications” (Techfields Pharma Co., Ltd., priority 2008, dated 2023)
